Measured values published in ChEMBL document CHEMBL5331071, “Structure-activity relationship study of amidobenzimidazole derivatives as stimulator of interferon genes (STING) agonists” (Eur J Med Chem, 2023).
pEC50, pIC50: −log10 of the molar value. The source made the active and inactive calls. The rule behind the calls is not given here.

Key:
[1] = target: T1, Stimulator of interferon genes protein (Homo sapiens, UniProt Q86WV6); experiment: Activation of STING signalling pathway in human PBMC cells assessed as increase in IL-6 level incubated for 4 hrs by ELISA method; type: cell-based
[2] = target: T1, Stimulator of interferon genes protein; experiment: Activation of STING signalling pathway in human PBMC cells assessed as increase in STING phosphorylation at 10 uM measured after 1 hr by Western blot analysis; type: cell-based; conditions: filed as agonist
[3] = target: T1, Stimulator of interferon genes protein; experiment: Agonist activity at STING in human […] KO-STING cells incubated for 20 hrs by Quanti-luc reagent based assay; type: cell-based, THP1-Dual KO-STING
[4] = Metabolic stability in Sprague-Dawley rat plasma assessed as compound remaining measured after 1 hr by LC-MS/MS analysis; type: ADME, cell-free; conditions: read-out: Stability
[5] = target: T1, Stimulator of interferon genes protein; experiment: Activation of STING signalling pathway in human PBMC cells assessed as increase in TBK1 phosphorylation at 10 uM measured after 1 hr by Western blot analysis; type: cell-based; conditions: filed as agonist
[6] = target: T1, Stimulator of interferon genes protein; experiment: Activation of STING signaling pathway in human wild type THP-1 cells assessed as increase in IL-6 mRNA level at 50 uM measured after 4 hrs by qRT-PCR analysis; type: cell-based; conditions: filed as agonist
[7] = target: T2, Stimulator of interferon genes protein (Mus musculus, UniProt Q3TBT3); experiment: Agonist activity at STING in mouse RAW-Lucia ISG cells by luciferase gene reporter assay; type: cell-based
T2 sequence (Q3TBT3 whole entry): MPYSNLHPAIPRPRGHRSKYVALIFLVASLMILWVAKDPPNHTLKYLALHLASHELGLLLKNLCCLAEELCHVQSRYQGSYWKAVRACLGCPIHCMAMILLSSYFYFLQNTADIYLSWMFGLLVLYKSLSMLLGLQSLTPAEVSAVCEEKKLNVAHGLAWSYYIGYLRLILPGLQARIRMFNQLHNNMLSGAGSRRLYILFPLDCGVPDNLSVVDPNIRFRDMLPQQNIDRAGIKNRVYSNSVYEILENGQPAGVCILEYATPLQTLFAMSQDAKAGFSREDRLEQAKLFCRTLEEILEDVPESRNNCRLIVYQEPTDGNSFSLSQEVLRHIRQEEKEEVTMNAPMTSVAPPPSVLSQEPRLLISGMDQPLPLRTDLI

[8] = target: T3, Stimulator of interferon genes protein (Mus musculus) (UniProt Q3TBT3); experiment: Activation of STING in mouse RAW264.7 cells assessed as increase in CXCL10 expression at 10 to 100 uM incubated for 24 hrs by qRT-PCR analysis; type: cell-based; conditions: dose 10-100 µM
T3 sequence (whole entry): T2 sequence (Q3TBT3 whole entry)

[9] = target: T3, Stimulator of interferon genes protein (Mus musculus); experiment: Activation of STING in mouse RAW264.7 cells assessed as increase in TBK1 phosphorylation at 10 to 100 uM incubated for 4 hrs by Western blot analysis; type: cell-based; conditions: dose 10-100 µM
[10] = target: T1, Stimulator of interferon genes protein; experiment: Activation of STING signalling pathway in human THP1-Dual cells assessed as increase in IRF-luciferase activation incubated for 24 hrs by QUANTI-luc assay; type: cell-based
[11] = target: T1, Stimulator of interferon genes protein; experiment: Activation of STING signalling pathway in human wild type THP-1 cells assessed as increase in IRF3 phosphorylation at 10 uM measured after 1 hr by Western blot analysis; type: cell-based; conditions: filed as agonist
[12] = target: T1, Stimulator of interferon genes protein; experiment: Activation of STING signalling pathway in human THP1-Dual cells assessed as increase in NF-kappaB-SEAP activation incubated for 24 hrs by QUANTI-Blue reagent based assay; type: cell-based
[13] = target: T1, Stimulator of interferon genes protein; experiment: Activation of STING signaling pathway in human PBMC cells assessed as increase in IL-6 mRNA level at 0.1 to 1 uM measured after 4 hrs by qRT-PCR analysis; type: cell-based; conditions: filed as agonist, dose 0.1-1 µM
[14] = target: T1, Stimulator of interferon genes protein; experiment: Activation of STING signalling pathway in human THP-1 cells assessed as increase in CXCL10 level incubated for 4 hrs by ELISA method; type: cell-based; conditions: filed as agonist, dose 0.046-0.421 pg/ml
[15] = Metabolic stability in Sprague-Dawley rat plasma assessed as compound remaining measured after 2 hrs by LC-MS/MS analysis; type: ADME, cell-free; conditions: read-out: Stability
[16] = target: T1, Stimulator of interferon genes protein; experiment: Activation of STING signalling pathway in human wild type THP-1 cells assessed as increase in STING phosphorylation at 10 uM measured after 1 hr by Western blot analysis; type: cell-based; conditions: filed as agonist
[17] = target: T1, Stimulator of interferon genes protein; experiment: Activation of STING signalling pathway in human wild type THP-1 cells assessed as increase in IFN-beta secretion incubated for 4 hrs by ELISA method; type: cell-based
[18] = target: T1, Stimulator of interferon genes protein; experiment: Activation of STING signalling pathway in human wild type THP-1 cells assessed as increase in TBK1 phosphorylation at 10 uM measured after 1 hr by Western blot analysis; type: cell-based; conditions: filed as agonist
[19] = Cytotoxicity against human THP1-Dual KO-STING cells assessed as inhibition of cell growth by MTS assay; type: functional, cell-based
[20] = target: T3, Stimulator of interferon genes protein (Mus musculus); experiment: Activation of STING in mouse RAW264.7 cells assessed as increase in IRF3 phosphorylation at 10 to 100 uM incubated for 4 hrs by Western blot analysis; type: cell-based; conditions: dose 10-100 µM
THP1-Dual = experiment: Cytotoxicity against human THP1-Dual habouring STING assessed as inhibition of cell growth by MTS assay; type: functional, cell-based
[21] = target: T1, Stimulator of interferon genes protein; experiment: Activation of STING signalling pathway in human PBMC cells assessed as increase in IRF3 phosphorylation at 10 uM measured after 1 hr by Western blot analysis; type: cell-based; conditions: filed as agonist
[22] = target: T1, Stimulator of interferon genes protein; experiment: Activation of STING signalling pathway in human PBMC cells assessed as increase in CXCL10 level incubated for 4 hrs by ELISA method; type: cell-based
[23] = target: T1, Stimulator of interferon genes protein; experiment: Activation of STING signalling pathway in human PBMC cells assessed as increase in IFN-beta level incubated for 4 hrs by ELISA method; type: cell-based
[24] = target: T1, Stimulator of interferon genes protein; experiment: Activation of STING signaling pathway in human wild type THP-1 cells assessed as increase in IFN-beta mRNA level at 50 uM measured after 4 hrs by qRT-PCR analysis; type: cell-based; conditions: filed as agonist
[25] = target: T1, Stimulator of interferon genes protein; experiment: Agonist activity at STING in human THP1-Dual cells incubated for 20 hrs by Quanti-luc reagent based assay; type: cell-based
[26] = target: T1, Stimulator of interferon genes protein; experiment: Activation of STING signalling pathway in human THP-1 cells assessed as increase in IL-6 level incubated for 4 hrs by ELISA method; type: cell-based; conditions: filed as agonist, dose 3.7-33.3 pg/ml
[27] = target: T3, Stimulator of interferon genes protein (Mus musculus); experiment: Activation of STING in mouse RAW264.7 cells assessed as increase in IFN-beta expression at 10 to 100 uM incubated for 24 hrs by qRT-PCR analysis; type: cell-based; conditions: dose 10-100 µM
[28] = target: T1, Stimulator of interferon genes protein; experiment: Activation of STING signaling pathway in human PBMC cells assessed as increase in IFN-beta mRNA level at 0.1 to 1 uM measured after 4 hrs by qRT-PCR analysis; type: cell-based; conditions: filed as agonist, dose 0.1-1 µM
[29] = target: T3, Stimulator of interferon genes protein (Mus musculus); experiment: Activation of STING in mouse RAW264.7 cells assessed as increase in IL-6 expression at 10 to 100 uM incubated for 24 hrs by qRT-PCR analysis; type: cell-based; conditions: dose 10-100 µM
[30] = target: T1, Stimulator of interferon genes protein; experiment: Activation of STING signaling pathway in human wild type THP-1 cells assessed as increase in CXCL10 mRNA level at 50 uM measured after 4 hrs by qRT-PCR analysis; type: cell-based; conditions: filed as agonist
[31] = target: T1, Stimulator of interferon genes protein; experiment: Activation of STING signalling pathway in human THP-1 cells assessed as increase in TNF-alpha level incubated for 4 hrs by ELISA method; type: cell-based; conditions: filed as agonist, dose 3.7-33.3 pg/ml
[32] = target: T1, Stimulator of interferon genes protein; experiment: Activation of STING signalling pathway in human PBMC cells assessed as increase in STING phosphorylation at 55.68 uM measured after 1 hr by Western blot analysis; type: cell-based
[33] = target: T1, Stimulator of interferon genes protein; experiment: Activation of STING signaling pathway in human PBMC cells assessed as increase in CXCL10 mRNA level at 0.1 to 1 uM measured after 4 hrs by qRT-PCR analysis; type: cell-based; conditions: filed as agonist, dose 0.1-1 µM

T1 sequence (Q86WV6 whole entry): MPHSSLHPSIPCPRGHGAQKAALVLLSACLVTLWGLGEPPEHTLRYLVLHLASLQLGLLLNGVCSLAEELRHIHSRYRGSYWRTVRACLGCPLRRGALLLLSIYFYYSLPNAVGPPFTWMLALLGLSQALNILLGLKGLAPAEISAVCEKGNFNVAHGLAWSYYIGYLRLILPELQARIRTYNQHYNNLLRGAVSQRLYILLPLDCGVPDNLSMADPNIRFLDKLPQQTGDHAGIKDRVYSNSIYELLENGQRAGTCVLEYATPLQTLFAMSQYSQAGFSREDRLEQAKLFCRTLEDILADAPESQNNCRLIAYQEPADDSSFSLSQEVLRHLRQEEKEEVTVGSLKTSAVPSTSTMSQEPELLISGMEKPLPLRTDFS

pEC50 [1]: 7.52
Activity ([1]; filed as agonist, dose 0.006-0.16 µM): Dose-Dependent Effect
Activity [2]: Active
pEC50 [3]: < 4.00
remaining at 1 h [4]: 78.7%
Activity [5]: Active
Activity [6]: Active
pEC50 [7]: < 4.00
Activity [8]: inactive
Activity [9]: inactive
pEC50 [10]: 5.49
Activity ([10]; filed as agonist): Dose-Dependent Effect
Activity [11]: Active
pEC50 [12]: 5.26
Activity ([12]; filed as agonist): Dose-Dependent Effect
Activity [13]: Active
Activity [14]: Dose-Dependent Effect
remaining at 2 h [15]: 60.5%
Activity [16]: Active
pEC50 [17]: 5.32
Activity ([17]; filed as agonist): Dose-Dependent Effect
Activity [18]: Active
Activity [20]: inactive
Activity [21]: Active
pEC50 [22]: 6.92
Activity ([22]; filed as agonist, dose 0.046-0.412 µM): Dose-Dependent Effect
pEC50 [23]: 6.57
Activity ([23]; filed as agonist, dose 0.137-1.235 µM): Dose-Dependent Effect
Activity [24]: Active
pEC50 [25]: 5.80
Activity [26]: Dose-Dependent Effect
Activity [27]: inactive
Activity [28]: Active
Activity [29]: inactive
Activity [30]: Active
Activity [31]: Dose-Dependent Effect
Activity [32]: inactive
Activity [33]: Active
SMILES: CCn1nc(C)cc1C(=O)Nc1nc2cc(C(N)=O)cc(OC)c2n1NCCCC(=O)NCc1ccc(F)cc1
pIC50 [19]: < 4.00
pIC50 (THP1-Dual): < 4.00
